The record followed here is patent US9150530B2, “Esters of 4, 9-dihydroxy-naphtho [2, 3-b] furans for disease therapies” (Zhoushan Haizhongzhou Xinsheng Pharmaceuticals Co., Ltd., priority 2011, dated 2015).

One data set concerns LOVO. As to the kind of experiment: Cell viability determination (MTT), LOVO. It counts as cell-based. To be noted: Homo sapiens, colorectal cancer, 48 hour incubation, read-out: Drug concentrations for 50% cell viability (IC50). The text has this: (§1) Cell Culture: A549, DLD1, SW480, LOVO, HT-29, Hela, U-20S, MES-SA, SK-MEL-28, Panc-1, DU-145, CNE, U251, Eca-109, MGC80-3, QGY-7701, BEL-7404, PLC/PRF/5, Huh-7, and SGC-7901 cells were maintained in Dulbecco's Modified Eagle Medium (DMEM) (imported from Invitrogen, Carlsbad, Calif., USA) supplemented with 10% fetal bovine serum (FBS) (Si Ji Qing, Hangzhou, China) and 1% penicillin/streptomycin/amphotericin B (imported from Invitrogen, Carlsbad, Calif., USA).
(§2) Cell Viability Determination: Popular MTT method (Archives of Biochemistry and Biophysics, 1993, 303: 474-482) was used to screen the in vitro effects of the invented drugs. Briefly, 5000 to 10000 cells were inoculated per well in a 96-well plate. After overnight incubation, drug was added to the wells at final concentration of 10 μM, […], 2.5 μM, 1.25 μM, or 1 μM, 0.75 μM, 0.5 μM and 0.25 μM in complete culture medium. Each dose level covered 4 equivalent wells. After 48 hour incubation, one tenth volume of 5 mg/mL MTT (thiazolyl blue tetrazolium bromide, Sigma-Aldrich) stock solution was added, and incubation was continued for 2 hours. Then medium was removed and 100 μL of isopropanol solution comprising 86% isopropanol, 4% aqueous 1 N HCl and 10% aqueous SDS solution (10% in concentration) was added. The absorbance of each well at 570 nm wavelength was measured by a micro-plate reader after gentle shaking for 20 minutes. Drug concentrations of 50% cell viability (IC50) were calculated by LOGIT method.

A further data set relates to SW480. Put plainly: Cell viability determination (MTT), SW480. As to conditions: Homo sapiens, SW480, colorectal cancer, 48 hour incubation, read-out: Drug concentrations for 50% cell viability (IC50). Type of data set: cell-based.
Source text: as §1, §2

For another data set, the system named is DLD1. As to the kind of experiment: Cell viability determination (MTT), DLD1. Type of data set: cell-based. To be noted: Homo sapiens, DLD-1, DLD1, colorectal cancer, 48 hour incubation, read-out: Drug concentrations for 50% cell viability (IC50).
Source text: as §1, §2

Data set [1] can be described thus: Human plasma incubation, HPLC analysis of degradation products. It counts as in vitro ADME. As to conditions: 20 μM in human plasma, 37° C., 2 hours. As to the method:
The compounds of formula I were incubated in human plasma at 37° C. for 2 hours, and then the mixtures were treated with acetonitrile to remove protein and the resulting supernatants were analyzed by HPLC (FIG. 2). […] Without wishing to be bound by a particular theory, it is believed that, although not detected due to instability in a protein-free environment, the direct hydrolysis product of a compound of formula I, 4,9-dihydroxy-naphtho[2,3-b]furan, and its partially oxidized product semihydroquinone (shown in scheme 6) co-exist in vivo and play important biological roles.
HPLC column: Waters Sunfire C18, 250×4.60 mm 5 micron; Mobile phase: buffer A, 90% 5 mM potassium phosphate buffer, pH 6.8, 10% acetonitrile; buffer B, 15% 5 mM potassium phosphate buffer, pH 6.8, 85% acetonitrile; Detector: Waters 2998 Photodiode Array Detector.
Gradient B: 0-3 min, 50% buffer B, 3-5 min, 50%-100% buffer B, 5-18 min, 100% buffer B, 18-22 min, 100%-50% buffer B, 22-25 min, […]; flow rate, 1 ml/min. Analysis of the 4,9-dihydroxy-naphtho[2,3-b]furan compounds (FIG. 1)
10 mM of a compound of formula I or its analog in DMSO (however, compound VI was in DMF) was diluted with human plasma to 20 μM, and the resulting mixtures were incubated at 37° C. for 2 hours. To plasma sample, 9 times volume of acetonitrile was added. The resulting mixtures were vortexed and incubated in dry ice for 30 minutes or in −20° C. freezer for 3 hours, then centrifuged, and supernatant was used for HPLC analysis using gradient B.

A further data set concerns Hela. As to the kind of experiment: Cell viability determination (MTT), Hela. It counts as cell-based. To be noted: Homo sapiens, cervical cancer, 48 hour incubation, read-out: Drug concentrations for 50% cell viability (IC50).
Source text: as §1, §2

The next data set concerns U-20S. As to the kind of experiment: Cell viability determination (MTT), U-20S. It counts as cell-based. To be noted: osteosarcoma, 48 hour incubation, read-out: Drug concentrations for 50% cell viability (IC50).
Source text: as §1, §2

The test system of another data set is Panc-1. As to the kind of experiment: Cell viability determination (MTT), Panc-1. Type of data set: cell-based. To be noted: Homo sapiens, Panc-1, pancreatic cancer, 48 hour incubation, read-out: Drug concentrations for 50% cell viability (IC50).
Source text: as §1, §2

For `CC(=O)Oc1c2ccccc2c(OC(=O)CNC(=O)OC(C)(C)C)c2oc(C(C)=O)cc12` [compound IV, 2-acetyl-4-acetoxy-9-[(tert-butoxycarbonyl)amino]acetoxy-naphtho[2,3-b]furan], the IC50 was 1930 nM in the data set with LOVO; 910 nM with SW480; 300 nM with DLD1; 860 nM with Hela; 750 to 1000 nM in the data set on U-20S; 870 nM with Panc-1. In data set [1], the “Degradation / detectable products after incubation in human plasma” value is “the detectable products were compound XIII and partially degraded products”.
